Values of other authors as cited in patent publication US20080153927A1, “ALPHA-2B RECEPTOR AGONIST AND RELAXANT COMPOSITIONS FOR TREATING GASTROINTESTINAL MOTILITY DISORDERS” (Allergan, Inc., priority 2006, published 2008).

initial half-life (in vivo): 1.2 h
time to maximum serum concentration (serum): about 1 hour
Structure (SMILES): CN(C)[C@@H](CCOc1cccc2ccccc12)c1ccccc1 [Dapoxetine]
